In US10670605B2, “Cysteine reactive probes and uses thereof” (The Scripps Research Institute, priority 2015, dated 2020):
Where “and” joins values, the source holds several entries; their conditions need not be identical. Equal entries are not always repeated.

What was measured:
Experiment in all cases: Competitive isoTOP-ABPP, cell lysates
Assay type in all cases: binding
[1] = biological target: T1, ACAT1 C413 (P24752) (Homo sapiens, UniProt P24752)
T1 sequence (P24752 34-427): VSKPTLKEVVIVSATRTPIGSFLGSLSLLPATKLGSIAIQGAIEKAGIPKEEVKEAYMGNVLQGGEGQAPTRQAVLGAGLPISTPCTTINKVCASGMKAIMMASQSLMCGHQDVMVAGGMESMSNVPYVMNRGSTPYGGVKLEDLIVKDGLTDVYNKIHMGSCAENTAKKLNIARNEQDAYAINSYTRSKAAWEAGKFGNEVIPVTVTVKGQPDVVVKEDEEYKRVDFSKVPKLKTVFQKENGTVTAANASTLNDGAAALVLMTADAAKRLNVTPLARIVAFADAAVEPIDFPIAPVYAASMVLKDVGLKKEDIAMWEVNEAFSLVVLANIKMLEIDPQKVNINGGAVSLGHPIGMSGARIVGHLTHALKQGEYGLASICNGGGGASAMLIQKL

[2] = biological target: T2, UBE2S C118 (Q16763) (Homo sapiens, UniProt Q16763)
T2 sequence (Q16763 1-222): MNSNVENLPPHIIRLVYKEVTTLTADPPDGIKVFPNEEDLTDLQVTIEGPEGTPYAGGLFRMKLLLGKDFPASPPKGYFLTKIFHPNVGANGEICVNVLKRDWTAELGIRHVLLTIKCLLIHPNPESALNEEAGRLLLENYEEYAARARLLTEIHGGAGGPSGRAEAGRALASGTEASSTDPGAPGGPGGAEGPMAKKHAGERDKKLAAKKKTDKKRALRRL

[3] = biological target: T3, ACAT1 C126 (P24752) (Homo sapiens, UniProt P24752); conditions: for R value (DMSO/fragment): 250 μM, in vitro
T3 sequence (P24752 34-427): T1 sequence (P24752 34-427)

[4] = biological target: T4, ACAT1 C119 (P24752) (Homo sapiens, UniProt P24752); conditions: for R value (DMSO/fragment): 250 μM, in vitro
T4 sequence (P24752 34-427): T1 sequence (P24752 34-427)

[5] = biological target: T5, ACAT1 C196 (P24752) (Homo sapiens, UniProt P24752); conditions: for R value (DMSO/fragment): 250 μM, in vitro
T5 sequence (P24752 34-427): T1 sequence (P24752 34-427)

[6] = biological target: T6, USP22 C171 (Q9UPT9) (Homo sapiens, UniProt Q9UPT9)
T6 sequence (Q9UPT9 1-525): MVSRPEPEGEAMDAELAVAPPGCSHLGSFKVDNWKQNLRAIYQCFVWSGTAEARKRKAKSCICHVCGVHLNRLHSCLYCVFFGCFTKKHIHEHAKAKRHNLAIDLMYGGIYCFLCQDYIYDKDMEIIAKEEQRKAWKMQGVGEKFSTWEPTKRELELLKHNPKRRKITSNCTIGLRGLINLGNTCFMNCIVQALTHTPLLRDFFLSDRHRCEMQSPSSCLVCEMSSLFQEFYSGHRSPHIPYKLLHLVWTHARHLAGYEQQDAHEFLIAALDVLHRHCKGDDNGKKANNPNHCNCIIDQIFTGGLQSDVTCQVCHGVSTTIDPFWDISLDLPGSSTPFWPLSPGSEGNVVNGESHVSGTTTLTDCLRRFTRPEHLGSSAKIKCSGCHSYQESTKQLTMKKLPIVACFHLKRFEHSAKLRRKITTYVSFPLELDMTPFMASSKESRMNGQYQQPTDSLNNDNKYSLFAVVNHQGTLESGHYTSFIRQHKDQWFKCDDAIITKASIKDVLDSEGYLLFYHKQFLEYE

C=CC(=O)N(Cc1cccnc1)c1ccc(Oc2ccccc2)c(C(F)(F)F)c1 [compound 15]
isoTOP-ABPP ratio P24752_C413 ([1]; 500 μM, invitro, 231): 1.2
isoTOP-ABPP ratio (reactivity profile), P24752_C413 ([1]; 500 μm in-vitro ramos): 0.9
isoTOP-ABPP ratio (reactivity profile), Q16763_C118 ([2]; 500 μm in-vitro ramos): 1.2
isoTOP-ABPP ratio, P24752_C126 ([3]; 500 μM, invitro, 231): 0.8
isoTOP-ABPP ratio P24752_C119 ([4]; 500 μM, invitro, 231): 1.0
isoTOP-ABPP ratio (reactivity profile), P24752_C119 ([4]; 500 μm in-vitro ramos): 1.2
isoTOP-ABPP ratio, P24752_C196 ([5]; 500 μM, invitro, 231): 0.9
isoTOP-ABPP ratio (reactivity profile), P24752_C196 ([5]; 500 μm in-vitro ramos): 1.6

COc1cc(NC(=O)CCl)cc(OC)c1 [compound 43]
isoTOP-ABPP reactivity profile ratio, P24752_C413 ([1]; 500 μm, in-vitro_ramos_231): 15.9
isoTOP-ABPP reactivity profile ratio, Q9UPT9_C171 ([6]; 500 μm, in-vitro_ramos): 4.5
isoTOP-ABPP reactivity profile ratio, Q16763_C118 ([2]; 500 μm, in-vitro_ramos): 1.0
isoTOP-ABPP reactivity profile ratio, P24752_C126 ([3]; 500 μm, in-vitro_ramos): 20.0
isoTOP-ABPP reactivity profile ratio, P24752_C119 ([4]; 500 μm, in-vitro_ramos): 1.1
isoTOP-ABPP reactivity profile ratio, P24752_C119 ([4]; 500 μm, in-vitro_ramos_231): 1.8
isoTOP-ABPP reactivity profile ratio, P24752_C196 ([5]; 500 μm, in-vitro_ramos): 2.3
isoTOP-ABPP reactivity profile ratio, P24752_C196 ([5]; 500 μm, in-vitro_ramos_231): 2.4

CC(C)CCOCCNC(=O)CCl [compound 27]
isoTOP-ABPP ratio (reactivity profile), P24752_C413 ([1]; 500 μm in-vitro ramos): 1.3
isoTOP-ABPP ratio (reactivity profile), P24752_C413 ([1]; 500 μm in-vitro ramos_231): 0.9 and 1.1
isoTOP-ABPP ratio (reactivity profile), Q9UPT9_C171 ([6]; 500 μm in-vitro ramos): 1.2
isoTOP-ABPP ratio (reactivity profile), Q16763_C118 ([2]; 500 μm in-vitro ramos): 0.9
isoTOP-ABPP ratio (reactivity profile), Q16763_C118 ([2]; 500 μm in-vitro ramos_231): 0.8
isoTOP-ABPP ratio (reactivity profile), P24752_C126 ([3]; 500 μm in-vitro ramos): 1.3
isoTOP-ABPP ratio (reactivity profile), P24752_C126 ([3]; 500 μm in-vitro ramos_231): 0.9 and 1.0
isoTOP-ABPP ratio (reactivity profile), P24752_C119 ([4]; 500 μm in-vitro ramos): 1.0
isoTOP-ABPP ratio (reactivity profile), P24752_C119 ([4]; 500 μm in-vitro ramos_231): 0.9 and 1.0
isoTOP-ABPP ratio (reactivity profile), P24752_C196 ([5]; 500 μm in-vitro ramos): 1.1
isoTOP-ABPP ratio (reactivity profile), P24752_C196 ([5]; 500 μm in-vitro ramos_231): 0.9 and 1.0

C=CC(=O)N1CCC(c2noc3ccc(F)cc23)CC1 [compound 37]
isoTOP-ABPP reactivity ratio, P24752_C413 ([1]; 500 μm, in-vitro_ramos): 0.9
isoTOP-ABPP reactivity ratio, P24752_C126 ([3]; 500 μm, in-vitro_ramos): 0.9
isoTOP-ABPP reactivity ratio, P24752_C119 ([4]; 500 μm, in-vitro_ramos): 0.8
isoTOP-ABPP reactivity ratio, P24752_C196 ([5]; 500 μm, in-vitro_ramos): 1.0

COc1ccc(C2CC(c3cccs3)=NN2C(=O)CCl)cc1 (stereo not shown) [compound 4]
R value (DMSO/fragment) ([1]; 250 μM, in vitro, MDA-MB-231): 3.3
R value (DMSO/fragment) ([6]; 250 μM, in vitro, Ramos): 4.0
R value (DMSO/fragment) ([2]; 250 μM, in vitro, MDA-MB-231): 1.2
R value (DMSO/fragment) ([3]; MDA-MB-231): 2.1
R value (DMSO/fragment) ([3]; Ramos): 1.2
R value (DMSO/fragment) ([4]; MDA-MB-231): 1.8
R value (DMSO/fragment) ([4]; Ramos): 0.2
R value (DMSO/fragment) ([5]; MDA-MB-231): 1.9
R value (DMSO/fragment) ([5]; Ramos): 0.5
